Among the data in ChEMBL document CHEMBL1145388, “Pyridazinoquinolinetriones as NMDA glycine-site antagonists with oral antinociceptive activity in a model of neuropathic pain” (J Med Chem, 2007) are logD and bioavailability values, retold here.

Data set [1] is described as follows: physchem. As to conditions: octanol/water, pH 7.4.
Data set [2] can be described thus: in vivo. Particulars: Sprague-Dawley, rat, po, 10 mg/kg.

In the case of `CC(c1ccsc1)n1[nH]c(=O)c2[nH]c3cc(Cl)ccc3c(=O)c2c1=O` (stereo not drawn), the logD in data set [1] turned out to be 0.9. Same read-out and setting: next, `CC(C#Cc1ccsc1)n1[nH]c(=O)c2[nH]c3cc(Cl)ccc3c(=O)c2c1=O` (stereo not drawn): 1.9. `O=c1[nH]n(Cc2cc3ccccc3s2)c(=O)c2c(=O)c3ccc(Cl)cc3[nH]c12` had a bioavailability at 24 h in data set [2] of 12%.

Turning to `C#CC(C)n1[nH]c(=O)c2[nH]c3cc(Cl)ccc3c(=O)c2c1=O` (stereo not drawn), the logD in data set [1] was below 0.5. For `CC(C#Cc1cccs1)n1[nH]c(=O)c2[nH]c3cc(Cl)ccc3c(=O)c2c1=O` (stereo not drawn), the logD in data set [1] is 2.4.

Take `CC(c1cc2ccccc2o1)n1[nH]c(=O)c2[nH]c3cc(Cl)ccc3c(=O)c2c1=O` (stereo not drawn): in data set [1], the logD was determined as 2. The compound `CCC(c1ccncc1)n1[nH]c(=O)c2[nH]c3cc(Cl)ccc3c(=O)c2c1=O` (racemic) yielded a logD in data set [1] of 0.6.

Regarding `O=c1[nH]n(CC#Cc2ccccc2)c(=O)c2c(=O)c3ccc(Cl)cc3[nH]c12`, the bioavailability at 24 h in data set [2] turned out to be 16%.

Turning to `CN(C)C(=O)Nc1ccc(Cn2[nH]c(=O)c3[nH]c4cc(Cl)ccc4c(=O)c3c2=O)cc1`, in data set [2], the bioavailability at 24 h is below 1%. In data set [1], this compound registered a logD of 1.1.

For the compound `CS(=O)(=O)O.O=c1c2ccc(Cl)cc2[nH]c2c(O)nn(Cc3ccncc3)c(=O)c12`, in data set [2], the bioavailability at 24 h came out at 5%. In addition, in data set [1], the logD is below 0.3.

In data set [1], `Cc1ccc(Cn2nc(O)c3[nH]c4cc(Cl)ccc4c(=O)c3c2=O)o1` registered a logD below 0.5. As for `COC(=O)c1ccc(C(C)n2[nH]c(=O)c3[nH]c4cc(Cl)ccc4c(=O)c3c2=O)cc1` (stereo not drawn), the logD in data set [1] stood at 1.3.

With `CC(C#Cc1ccccc1)n1[nH]c(=O)c2[nH]c3cc(Cl)ccc3c(=O)c2c1=O` (stereo not drawn), the pH-dependent lipophilicity (logD) in data set [1] is 1.4. The logD values of the last two compounds are within 0.2 log units of each other.

`O=C(O)c1ccc(Cn2[nH]c(=O)c3[nH]c4cc(Cl)ccc4c(=O)c3c2=O)cc1` yielded a logD in data set [1] below 0.5.

The compound `Cc1cc(Cn2[nH]c(=O)c3[nH]c4cc(Cl)ccc4c(=O)c3c2=O)oc1C` gave a logD in data set [1] of 1. Compound `O=c1[nH]n(Cc2ccno2)c(=O)c2c(=O)c3ccc(Cl)cc3[nH]c12` gave a bioavailability at 24 h in data set [2] of 40%. In data set [1], this compound returned a logD below 0.5. With `CC(c1ccncc1)n1[nH]c(=O)c2[nH]c3cc(Cl)ccc3c(=O)c2c1=O.CS(=O)(=O)O` (racemic), the bioavailability at 24 h in data set [2] was 30%. The logD in data set [1] was below 0.3. The compound `CS(=O)(=O)O.O=c1c2ccc(Cl)cc2[nH]c2c(O)nn(Cc3cnccn3)c(=O)c12` showed a bioavailability at 24 h in data set [2] of 37%. This compound also showed a pH-dependent lipophilicity (logD) in data set [1] below 0.5. Compound `COCCNC(=O)c1cccc(Cn2[nH]c(=O)c3[nH]c4cc(Cl)ccc4c(=O)c3c2=O)c1` showed a pH-dependent lipophilicity (logD) in data set [1] of 1.2. `Cc1ccsc1Cn1[nH]c(=O)c2[nH]c3cc(Cl)ccc3c(=O)c2c1=O`: the bioavailability at 24 h in data set [2] was 28%. The same compound gave a log distribution coefficient (logD) in data set [1] of 1.4. In data set [1], `O=c1[nH]n(Cc2nccs2)c(=O)c2c(=O)c3ccc(Cl)cc3[nH]c12` yielded a logD below 0.5. In data set [2], `COC(=O)c1ccc(Cn2nc(O)c3[nH]c4cc(Cl)ccc4c(=O)c3c2=O)cc1` came in with a bioavailability at 24 h of 7%. In addition, in data set [1], the logD turned out to be 1.17. Taken in the same sequence, the figures for `O=c1c2ccc(Cl)cc2[nH]c2c(O)nn(Cc3ccsc3)c(=O)c12` were 1.2% and 1.2.

On to `O=c1c2ccc(Cl)cc2[nH]c2c(O)nn(Cc3cc4ccccc4o3)c(=O)c12`, for which the bioavailability at 24 h in data set [2] came out at 25%. The same compound had a logD in data set [1] of 2.1.

Usually logD stands for lipophilicity at a set pH, counting ionised and neutral species. A high value points to higher lipophilicity. Broadly, the bioavailability is dose-corrected exposure relative to a reference, in per cent.
